# Assay results: patent US20250129334A1, “LINEAGE SPECIFICATION DURING STEM CELL TRANSITION” (Amniotics AB, priority 2021, published 2025)
# Test system: HSC-like cells
# Assay: HSC-like cell subculture with metabolic regulators, flow cytometry
# Format: cell-based, human
# Conditions: day 3, UK5099 10 μM
# Description: The RB9-CB1 human iPSC line (Woods, N.-B. et al. Brief report: efficient generation of hematopoietic precursors and progenitors from human pluripotent stem cell lines. Stem Cells 29, 1158-1164 (2011)) was co-cultured with mouse embryonic fibroblasts (MEFs, Millipore), passaged every six days and processed to form embryoid bodies (EBs) as described previously (Guibentif, C. et al. Single-Cell Analysis Identifies Distinct Stages of Human Endothelial to-Hematopoietic Transition. Cell Reports 19, 10-19 (2017)). The differentiation protocol used in this study was previously described (Ditadi, A. & Sturgeon, C. M. Directed differentiation of definitive hemogenic endothelium and hematopoietic progenitors from human pluripotent stem cells. Methods 101, 65-72 (2016)), however, small modifications were made to induce both primitive and definitive hematopoiesis, as indicated below and in FIG. 6, a. Newly-formed EBs were first kept in SFD medium supplemented with 1 ng/ml Activin A (on days 0-2) and 3 μM CHIR99021 (on day 2 only). At day 3, media was switched to “Day 3-SP34” medium supplemented with 1 ng/ml Activin A (on day 3 only) and 3 μM CHIR99021 (on day 3 only) until day 6. On day 6, media was replaced by “Day 6-SP34” medium, until day 8. […]
compound,measurement,value
"N#CC(=Cc1cn(-c2ccccc2)c2ccccc12)C(=O)O [UK5099, 2-Cyano-3-(1-phenyl-1H-indol-3-yl)-2-propenoic acid]",CD43+GPA+ cell output,absence of bias
